These results are taken from US4036957A, “Phenoxy compounds in combinations to suppress gastric bleeding in aspirin therapy” (priority 1975, dated 1977).

The subject of the data set is aspirin-induced gastric bleeding. The data set is described as follows: Prevention of aspirin-induced gastric bleeding in pyloric-ligated rats, i.p. test compound (Examples 1-22). The format is in vivo, Female Sprague-Dawley rats. The conditions noted are these: for Gastric Bleeding Index: score 0 to 40. The protocol:
The prevention of aspirin-induced bleeding in rats was determined by the following procedure. Female Sprague-Dawley rats weighing 150-180 g. were fasted for 24 hours on wire and divided into groups of six animals each. The rats were anesthetized and a ligature placed at the pyloric-duodenal junction. Groups serving as controls received normal saline (4.0 ml/kg, i.p.). […] Some of the compounds were tested at 50 mg/kg, i.p. The rats were sacrificed 60 min. after aspirin administration by cervical dislocation. The volume of the gastric contents was determined and compared against that produced with the same amount of aspirin for change in volume. […] (Gradation between 0 to 40 is on an even scale).

Where [1] appears, read: rat, 100 mg/kg i.p. (column head states no dose), aspirin 375 mg/kg p.o.
Where [2] appears, read: ip, 1 h, rat, 100 mg/kg i.p., aspirin 375 mg/kg p.o., read-out: Percent Decrease in Mucosal Bleeding vs Control.
The mark [3] stands for this setting: ip, rat, 100 mg/kg i.p. (column head states no dose), aspirin 375 mg/kg p.o., read-out: Vol. % Decrease in Gastric Secretion.

Like-named read-outs stand apart in the source and are kept apart here.

With “1-(3,5-dimethyl)-2-hydroxypropyl-4-ethyl thiosemicarbazide [Compound 19]”, under setting [1], the “Vol. % Decrease in Gastric Secretion” value was -40.5% and the “Gastric Bleeding Index” value came to 0.0. For the same molecule, for the setting “rat, 100 mg/kg i.p., aspirin 375 mg/kg p.o.”, the Percent Decrease in Mucosal Bleeding vs Control is 100%.

In the case of `OCC(CO)Oc1ccccc1` [Compound 1, 2-phenoxy-1,3-propanediol], the change in vivo at 100 mg/kg under setting [2] is -15%. Moreover, the “Gastric Bleeding Index” value under setting [1] worked out at 31.7.

`OCC(O)COc1ccccc1` (centres unmarked) [Compound 2, 3-phenoxy-1,2-propanediol]: the change in vivo at 100 mg/kg by setting is: (Rattus norvegicus, ip, 1 h, read-out: Percent Decrease in Mucosal Bleeding vs Control) -14%; (Rattus norvegicus, ip, read-out: Vol. % Decrease in Gastric Secretion) -14.1%. Besides, the “Gastric Bleeding Index” value under setting [1] turned out to be 20.0.

With `COc1ccccc1OCC(O)COC(=O)N(C)C` (centres unmarked) [Compound 4, N,N-dimethyl 3-(2-methoxyphenoxy)-1,2-propanediol-1-carbamate], the change in vivo at 100 mg/kg under setting [2] is -70% and the change in vivo at 100 mg/kg under setting [3] was -35.2%. Further, the “Gastric Bleeding Index” value under setting [1] is listed as 11.7.

Regarding `COc1ccccc1OCC(C)O` (centres unmarked) [Compound 5, 1-(2-methoxyphenoxy)-2-propanol], the change in vivo at 100 mg/kg runs as follows: under setting [2], -66%; under setting [3], -42%. Also, the “Gastric Bleeding Index” value under setting [1] is on record as 12.5.

In the case of `COc1ccc(Cl)cc1OCC(C)O` (centres unmarked) [Compound 6, 1-(5-chloro-2-methoxyphenoxy)-2-propanol], the change in vivo at 100 mg/kg reads like this: under setting [2], -93%; under setting [3], -42.2%. Further, the “Gastric Bleeding Index” value under setting [1] amounted to 1.7.

On to `COc1ccc(Cl)cc1OCC(O)CO` (centres unmarked) [Compound 7, 3-(5-chloro-2-methoxyphenoxy)-1,2-propanediol], for which the change in vivo at 100 mg/kg was -49% under setting [2] and -42% under setting [3]. Moreover, under setting [1], the “Gastric Bleeding Index” value amounted to 19.2.

For `Cc1ccc(Cl)cc1OCC(O)COC(N)=O` (centres unmarked) [Compound 9, 3-(5-chloro-2-methylphenoxy)-1,2-propanediol-1-carbamate], the change in vivo at 100 mg/kg was -81% under setting [2] and -36.6% under setting [3]. Moreover, the “Gastric Bleeding Index” value under setting [1] worked out at 7.2.

Turning to `Cc1c(Cl)cccc1OCC(C)O` (centres unmarked) [Compound 10, 1-(3-chloro-2-methylphenoxy)-2-propanol], the change in vivo at 100 mg/kg was -40% under setting [2] and -18.8% under setting [3]. For the same molecule, the “Gastric Bleeding Index” value under setting [1] was 22.5.

Consider `Cc1ccc(Cl)cc1OCC(O)CO` (centres unmarked) [Compound 11, 3-(5-chloro-2-methylphenoxy)-1,2-propanediol], for which the change in vivo at 100 mg/kg by setting is: under setting [2], -10%; under setting [3], -29.7%. Further, under setting [1], the “Gastric Bleeding Index” value was 20.8.

Take `Cc1ccc(Cl)cc1OCC(C)O` (centres unmarked) [Compound 12, 3-(5-chloro-2-methylphenoxy)-2-propanol]: the change in vivo at 100 mg/kg runs as follows: under setting [2], -75%; under setting [3], -35.9%. Also, the “Gastric Bleeding Index” value under setting [1] came to 5.8.

In the case of `COc1ccc(Cl)cc1OCC(O)COC(N)=O` (centres unmarked) [Compound 13, 3-(5-chloro-2-methoxyphenoxy)-1,2-propanediol-1-carbamate], the change in vivo at 100 mg/kg under setting [2] was -100% and the change in vivo at 100 mg/kg under setting [3] was -57.6%. For the same molecule, the “Gastric Bleeding Index” value under setting [1] worked out at 0.0.

Regarding `CCCCNCC(O)COc1ccccc1OC` (centres unmarked) [Compound 14, 1-(n-butylamino)-3-(2-methoxyphenoxy)-2-propanol], the change in vivo at 50 mg/kg (ip, 1 h, rat, 50 mg/kg i.p., aspirin 375 mg/kg p.o., read-out: Percent Decrease in Mucosal Bleeding vs Control) is -78%. The change in vivo at 100 mg/kg by setting is: under setting [2], -70%; under setting [3], -35.6%. Moreover, where the note is “rat, 100 mg/kg i.p.”, the Toxicity remark entry is given as “Toxic”. In addition, the “Gastric Bleeding Index” value under setting [1] is listed as 5.8.

For the molecule `O=C1NCC(COc2ccc(Cl)cc2Cl)O1` (centres unmarked) [Compound 16, 5-(2,4-dichlorophenoxymethyl)-2-oxazolidinone], the change in vivo at 100 mg/kg by setting is: under setting [2], -100%; under setting [3], -44.6%. Moreover, the “Gastric Bleeding Index” value under setting [1] was 0.0.

With `Cc1cccc(Cl)c1OCC(C)OC(N)=O` (centres unmarked) [Compound 17, 1-(6-chloro-2-methylphenoxy)-2-propylcarbamate], the change in vivo at 100 mg/kg under setting [2] was -72% and the change in vivo at 100 mg/kg under setting [3] was -36.5%. Further, the “Gastric Bleeding Index” value under setting [1] came to 7.5.

Take `Cc1cc(Cl)ccc1OCC(C)OC(=O)NC(C)C` (centres unmarked) [Compound 18, N-isopropyl 1-(4-chloro-2-methylphenoxy)-2-propylcarbamate]: the change in vivo at 100 mg/kg runs as follows: under setting [2], -28%; under setting [3], -29.3%. Further, under setting [1], the “Gastric Bleeding Index” value was 19.2.

Regarding `CNC(=O)N1CCC(Oc2cccc(Cl)c2)C1` (centres unmarked) [Compound 20, 3-(3-chlorophenoxy)-1-methylcarbamoyl-pyrrolidine], the change in vivo at 100 mg/kg under setting [2] is -100% and the change in vivo at 100 mg/kg under setting [3] is -31%. Besides, the “Gastric Bleeding Index” value under setting [1] came out at 0.0.

Consider `NC(=O)OCC(O)COc1ccc(Cl)cc1` (centres unmarked) [Compound 21, 3-(4-chlorophenoxy)-2-hydroxypropylcarbamate], for which the change in vivo at 100 mg/kg runs as follows: under setting [2], -78%; under setting [3], -30.5%. Further, under setting [1], the “Gastric Bleeding Index” value is on record as 4.2.

On to `CN(C)CCNC(=O)N1CCC(Oc2cccc(Cl)c2)C1` (centres unmarked) [Compound 30, 3-(3-chlorophenoxy)-N-[2-(dimethylaminoethyl)carboxamide]-1-pyrrolidine], for which the change in vivo at 100 mg/kg under setting [2] is -100%. Also, the change in vivo at 30 mg/kg is -97% (ip, 1 h, rat, at 30 mg/kg (footnote b), read-out: Percent Decrease in Mucosal Bleeding vs Control) and -32.8% (ip, rat, at 30 mg/kg (footnote b), read-out: Vol. % Decrease in Gastric Secretion). The “Gastric Bleeding Index” value (rat, at 30 mg/kg (footnote b)) was 0.8.
